Tested on: BXSB-Yaa mice
Assay: BXSB-Yaa strain lupus disease model
Format: in vivo, mouse
Conditions: for proteinuria: UACR; for Grade 3/4 nephritis onset: kidney histopathology
Method: Figure Legend: Twelve week old BXSB-Yaa mice were randomized into groups with equivalent median anti-dsDNA titers and treated once-a-day orally with Vehicle (Veh; 0.5% methyl-cellulose) alone or 300 mg/kg ER-892887 for 14 weeks total. (A) All mice were sacrificed at 26 weeks of age and final anti-dsDNA, anti-Sm/nRNP, and anti-RiboP titers were evaluated by ELISA as compared to titers observed in 6 wk old pre-diseased mice. (B) Approximately one week prior to sacrifice (25 weeks of age, 13 weeks of treatment), mice were housed 1-2 per cage in metabolic cages for 18 hours to collect urine, and the Urinary Albumin Creatinine Ratio (UACR, proteinuria) was determined for each animal as an indirect measure of kidney function. (C) At the time of sacrifice, kidneys were collected from individual mice, fixed in 10% formalin for 24 hours, embedded in paraffin, and H&E stained sections were generated for histopathology assessment in a blinded fashion. (D) Summary of mortality observed in the SLE-8 study. Statistical significance was determined by Mann-Whitney test for (A).
Figure Legend: Nine week old male BXSB-Yaa mice were treated once-a-day orally with Vehicle (Veh; 0.5% methyl-cellulose) alone or 100 mg/kg or 300 mg/kg ER-885454 for 15 weeks total. All mice were sacrificed at 24 weeks of age and final anti-dsDNA (A) and anti-Sm/RNP (B) titers were evaluated by ELISA. (C) Approximately one week prior to sacrifice, mice were housed 1-2 per cage in metabolic cages for 18 hours to collect urine, and the Urinary Albumin Creatinine Ratio (UACR, proteinuria) was determined for each animal as an indirect measure of kidney function. (D) At the time of sacrifice, kidneys were collected from individual mice, fixed in 10% formalin for 24 hours, embedded in paraffin, and H&E stained sections were generated for histopathology assessment in a blinded fashion. Statistical significance was determined by Mann-Whitney test for (A), (B), and (C) above.
Figure Legend: Seventeen week old BXSB-Yaa mice were randomized into two groups with equivalent median anti-dsDNA titers and treated once-a-day orally with Vehicle (Veh; 0.5% methyl-cellulose) alone or 300 mg/kg ER-885454 for 13 weeks total. All mice were sacrificed at 30 weeks of age and final anti-dsDNA (A) and anti-Sm/RNP (B) titers were evaluated by ELISA as compared to titers observed in 7 wk old pre-diseased mice. (C) Approximately one week prior to sacrifice, mice were housed 1-2 per cage in metabolic cages for 18 hours to collect urine, and the Urinary Albumin Creatinine Ratio (UACR, proteinuria) was determined for each animal as an indirect measure of kidney function. (D) At the time of sacrifice, kidneys were collected from individual mice, fixed in 10% formalin for 24 hours, embedded in paraffin, and H&E stained sections were generated for histopathology assessment in a blinded fashion. Statistical significance was determined by Mann-Whitney test for (A), (B), and (C) above.
Male BXSB-Yaa and female NZBWF1/J mice were purchased from Jackson Labs (Bar Harbor, Me.), both of which manifest with spontaneous lupus disease. Female DBA/1 mice were purchased from Harlan Laboratories (Indianapolis, Ind.) and at the indicated ages given an intraperitoneal injection of 0.5 ml pristane (2,6,10,14-Tetramethylpentadecane; Sigma, St. Louis, Mo.) to chemically induce lupus disease or of 0.5 ml PBS to generate age-matched, non-diseased control mice. Mice were dosed daily by oral administration of compound or drug in 0.5% methylcellulose, for the time period indicated.
Anti-dsDNA, -Sm/nRNP, -RiboP, and Histone titers were evaluated by standard ELISA approach. Briefly, 96-well EIA/RIA ELISA plates (Corning) were coated with 100 ul of diluted antigen in PBS for 90 minutes at room temperature as follows (final concentrations indicated): 10 U/ml Sm/nRNP complex (Immunovision), 10 ug/ml calf thymus dsDNA (Sigma), 5 U/ml RiboP (Immunovision), and 5 ug/ml Histone (Immunovision). […]

SMILES	proteinuria	Grade 3/4 nephritis onset	anti-Sm/nRNP titers (once-a-day oral)	anti-dsDNA titers (once-a-day oral)
COc1ccc([C@@H]2C[C@H](C(F)(F)F)n3nc(-c4ccncc4)cc3N2)cc1OC [ER-885454]	significantly reduced proteinuria	complete prevention	significantly reduced	significantly reduced
COc1ccc([C@@H]2C[C@H](C(F)(F)F)n3nc(-c4ccc(C(=O)N5CCNCC5)cc4)cc3N2)cc1OC [ER-892887, (4-((5S,7R)-5-(3,4-dimethoxyphenyl)-7-(trifluoromethyl)-4,5,6,7-tetrahydropyrazolo[1,5-a]pyrimidin-2-yl)phenyl)(piperazin-1-yl)methanone]	trend towards reduced proteinuria	complete prevention		significantly reduced
